Consider 19 compounds from ChEMBL document CHEMBL1149803, “Synthesis and anticonvulsant activity of some novel 3-aryl amino/amino-4-aryl-5-imino-Delta2-1,2,4-thiadiazoline” (Eur J Med Chem, 2008).

The source made the active and inactive calls. The calls are words filed in the database; no cut-off is given here.

Series [1] has as its system Mus musculus. Description: Anticonvulsant activity in CF1 albino mouse assessed as prevention of subcutaneous pentylenetetrazole-induced seizure at 300 mg/kg, ip after 0.5 hrs. Details: dose 300 mg/kg. Type of series: functional, organism-based.
Series [2] concerns Mus musculus. Description: Anticonvulsant activity in ip dosed CF1 albino mouse assessed as prevention of maximal electroshock-induced seizures after 0.5 hrs. Type of series: functional. (In general: Protection in the maximal electroshock model is a classic sign of anticonvulsant action.)
The test system of series [3] is Mus musculus. Kind of series: Anticonvulsant activity in CF1 albino mouse assessed as prevention of maximal electroshock-induced seizures at 300 mg/kg, ip after 4 hrs. Type of series: functional, organism-based. The arrangement: dose 300 mg/kg.
Series [4] has as its system Mus musculus. Kind of series: Anticonvulsant activity in CF1 albino mouse assessed as prevention of subcutaneous pentylenetetrazole-induced seizure at 300 mg/kg, ip after 4 hrs. Type of series: functional, organism-based. Details: dose 300 mg/kg.
In series [5] the test system is Mus musculus. Description: Neurotoxicity in ip dosed CF1 albino mouse after 0.5 hrs by rotarod test. Type of series: toxicity, organism-based. The following applies: in vivo. In general terms: The rotarod test checks motor coordination on a turning rod.
The subject of series [6] is Mus musculus. Description: Anticonvulsant activity in ip dosed CF1 albino mouse assessed as prevention of maximal electroshock-induced seizures after 4 hrs. Type of series: functional.
The subject of another series is Rattus norvegicus. Description: Sedative-hypnotic effect in Sprague-Dawley albino rat assessed as increase in sleep time at 100 mg/kg, ip by phenobarbitone-induced hypnosis test. As to conditions: route intraperitoneal. Type of series: functional.
For series [7], the system named is Mus musculus. Description: Anticonvulsant activity in CF1 albino mouse assessed as prevention of maximal electroshock-induced seizures at 300 mg/kg, ip after 0.5 hrs. Type of series: functional, organism-based. Details: dose 300 mg/kg.
Series [8] deals with Mus musculus. Kind of series: Neurotoxicity in ip dosed CF1 albino mouse after 4 hrs by rotarod test. As to conditions: in vivo. Type of series: toxicity, organism-based.
Series [9] has as its system Mus musculus. Description: Anticonvulsant activity in ip dosed CF1 albino mouse assessed as prevention of subcutaneous pentylenetetrazole-induced seizure after 0.5 hrs. Type of series: functional.

For the compound `N=c1snc(N)n1-c1ccc(Br)cc1`, the outcome in the series on Mus musculus [1], in the series with Mus musculus [3] and with Mus musculus [4] was inactive. Further, in the series on Mus musculus [2], the Activity worked out at 300 mg/kg.

In the case of `N=c1snc(Nc2cccc3ccccc23)n1-c1cccc2ccccc12`, the Activity with Mus musculus [5] amounted to 300 mg/kg; in the series on Mus musculus [6], 300 mg/kg; in the series on Rattus norvegicus it was 16.4%; in the series on Mus musculus [2], 30 mg/kg. Further, the outcome with Mus musculus [1] and with Mus musculus [4] was inactive.

In the series on Mus musculus [5], `N=c1snc(N)n1-c1ncccn1` yielded an Activity of 100 mg/kg. For the same compound, the result in the series on Mus musculus [1], in the series on Mus musculus [3], in the series on Mus musculus [4] and in the series with Mus musculus [7] was inactive.

As to `O=C1NC(=O)C(c2ccccc2)(c2ccccc2)N1` [PHENYTOIN], the Activity in the series with Mus musculus [5] turned out to be 100 mg/kg; in the series on Mus musculus [6], 100 mg/kg; in the series on Mus musculus [2] it was 30 mg/kg; in the series on Mus musculus [8], 100 mg/kg. Further, the result with Mus musculus [1] and in the series with Mus musculus [4] was inactive.

Consider `N=c1snc(Nc2ccc(F)cc2)n1-c1ccc(F)cc1`, for which the Activity in the series with Mus musculus [5] was found to be 300 mg/kg; in the series on Mus musculus [6], 300 mg/kg; in the series on Rattus norvegicus it was 5.1%; in the series with Mus musculus [2], 100 mg/kg. Further, the result in the series on Mus musculus [1] and in the series on Mus musculus [4] was inactive.

As to `N=c1snc(Nc2ccncc2)n1-c1ccncc1`, the Activity amounted to 100 mg/kg with Mus musculus [5] and 300 mg/kg with Mus musculus [2]. The result with Mus musculus [1], in the series on Mus musculus [3] and in the series with Mus musculus [4] was inactive.

For the compound `NC(=O)N1c2ccccc2C=Cc2ccccc21` [CARBAMAZEPINE], the Activity with Mus musculus [5] turned out to be 100 mg/kg; with Mus musculus [2], 30 mg/kg; with Mus musculus [9], 100 mg/kg; in the series with Mus musculus [8], 300 mg/kg. For the same compound, the result with Mus musculus [3] and in the series on Mus musculus [4] was inactive.

With `N=c1snc(N)n1-c1ccncc1`, the Activity in the series on Mus musculus [5] was found to be 100 mg/kg; in the series on Mus musculus [2], 300 mg/kg. The outcome with Mus musculus [1], in the series on Mus musculus [3] and with Mus musculus [4] was inactive.

As to `N=c1snc(N)n1-c1ccc(Cl)cc1`, the Activity amounted to 100 mg/kg in the series on Mus musculus [5] and 300 mg/kg in the series with Mus musculus [2]. Further, the result in the series on Mus musculus [1], with Mus musculus [3] and in the series on Mus musculus [4] was inactive.

For the compound `N=c1snc(N)n1-c1cccnc1`, the Activity in the series on Mus musculus [5] is 100 mg/kg; with Mus musculus [2] it was 300 mg/kg. Further, the outcome with Mus musculus [1], with Mus musculus [3] and in the series on Mus musculus [4] was inactive.

With `CCOc1ccc(-n2c(N)nsc2=N)cc1`, the Activity in the series with Mus musculus [5] is 100 mg/kg; in the series with Rattus norvegicus, 46.8%; in the series with Mus musculus [2] it was 100 mg/kg. Besides, the outcome in the series with Mus musculus [1], in the series with Mus musculus [3] and with Mus musculus [4] was inactive.

Consider `N=c1snc(N)n1-c1ccc(F)cc1`, for which the Activity in the series on Mus musculus [5] was 100 mg/kg; in the series with Mus musculus [6] it was 300 mg/kg; with Rattus norvegicus, 20.2%; with Mus musculus [2], 100 mg/kg. Further, the result in the series on Mus musculus [1] and in the series with Mus musculus [4] was inactive.

Regarding `CCOc1ccc(Nc2nsc(=N)n2-c2ccc(OCC)cc2)cc1`, the Activity with Mus musculus [5] is 300 mg/kg; in the series with Mus musculus [6], 300 mg/kg; in the series on Rattus norvegicus, 55.6%; in the series on Mus musculus [2], 30 mg/kg; in the series on Mus musculus [9], 300 mg/kg. Moreover, the result in the series with Mus musculus [4] was inactive.

Consider `COc1ccc(-n2c(N)nsc2=N)cc1`, for which the result with Mus musculus [1], in the series on Mus musculus [3] and in the series on Mus musculus [4] was inactive. The Activity in the series with Mus musculus [2] was determined as 300 mg/kg.

With `N=c1snc(Nc2ccccn2)n1-c1ccccn1`, the Activity with Mus musculus [5] is 100 mg/kg; with Mus musculus [2] it was 300 mg/kg; in the series with Mus musculus [8], 300 mg/kg. For the same compound, the result in the series with Mus musculus [1], in the series on Mus musculus [3] and in the series with Mus musculus [4] was inactive.

Turning to `N=c1snc(N)n1-c1ccccn1`, the Activity in the series on Mus musculus [5] was 100 mg/kg; in the series with Mus musculus [2], 300 mg/kg. The result with Mus musculus [1], in the series with Mus musculus [3] and with Mus musculus [4] was inactive.

`N=c1snc(Nc2cccnc2)n1-c1cccnc1`: the Activity amounted to 100 mg/kg in the series on Mus musculus [5] and 300 mg/kg in the series with Mus musculus [2]. The result with Mus musculus [1], in the series on Mus musculus [3] and in the series with Mus musculus [4] was inactive.

Take `N=c1snc(Nc2ncccn2)n1-c1ncccn1`: the Activity was 100 mg/kg in the series with Mus musculus [5], 11.4% in the series with Rattus norvegicus and 100 mg/kg with Mus musculus [2]. Further, the result with Mus musculus [1], with Mus musculus [3] and in the series on Mus musculus [4] was inactive.

On to `N=c1snc(N)n1-c1cccc2ccccc12`, for which the Activity in the series with Mus musculus [5] came out at 300 mg/kg; in the series on Rattus norvegicus, 8.8%; in the series on Mus musculus [2] it was 30 mg/kg; in the series on Mus musculus [8], 300 mg/kg. In addition, the result in the series with Mus musculus [1], with Mus musculus [3] and in the series with Mus musculus [4] was inactive.
